Measurements taken from ChEMBL document CHEMBL1671626, “In vitro profiling of ceftaroline against a collection of recent bacterial clinical isolates from across the United States” (2008).
≈ marks a conversion by molar mass, not a printed value.

Tests used:
Format in all cases: functional
Streptococcus agalactiae = experiment: Antibacterial activity against erythromycin-nonsusceptible Streptococcus agalactiae by CLSI M7-A7 broth microdilution method
Acinetobacter [1] = experiment: Antibacterial activity against imipenem-susceptible Acinetobacter by CLSI M7-A7 broth microdilution method
Citrobacter freundii [2] = experiment: Antibacterial activity against ceftazidime-susceptible Citrobacter freundii assessed as resistant isolates by CLSI M7-A7 broth microdilution method
Morganella morganii [3] = experiment: Antibacterial activity against ceftazidime-susceptible Morganella morganii assessed as resistant isolates by CLSI M7-A7 broth microdilution method
Enterobacteriaceae [4] = experiment: Antibacterial activity against ceftazidime-nonsusceptible Enterobacteriaceae by CLSI M7-A7 broth microdilution method
Acinetobacter [5] = experiment: Antibacterial activity against imipenem-susceptible Acinetobacter assessed as resistant isolates by CLSI M7-A7 broth microdilution method
Providencia sp. [6] = experiment: Antibacterial activity against ceftazidime-susceptible Providencia sp. by CLSI M7-A7 broth microdilution method
Staphylococcus aureus [7] = experiment: Antibacterial activity against coagulase-negative and oxacillin-resistant Staphylococcus aureus assessed as resistant isolates by CLSI M7-A7 broth microdilution method
Enterococcus faecalis [8] = experiment: Antibacterial activity against vancomycin-susceptible Enterococcus faecalis by CLSI M7-A7 broth microdilution method
Morganella morganii [9] = experiment: Antibacterial activity against ceftazidime-susceptible Morganella morganii assessed as susceptible isolates by CLSI M7-A7 broth microdilution method
Enterobacter cloacae [10] = experiment: Antibacterial activity against ceftazidime-nonsusceptible Enterobacter cloacae assessed as resistant isolates by CLSI M7-A7 broth microdilution method
Citrobacter freundii [11] = experiment: Antibacterial activity against ceftazidime-susceptible Citrobacter freundii assessed as susceptible isolates by CLSI M7-A7 broth microdilution method
Streptococcus pneumoniae [12] = experiment: Antibacterial activity against penicillin-resistant Streptococcus pneumoniae by CLSI M7-A7 broth microdilution method
Staphylococcus aureus [13] = experiment: Antibacterial activity against methicillin-resistant Staphylococcus aureus assessed as resistant isolates by CLSI M7-A7 broth microdilution method
Escherichia coli [14] = experiment: Antibacterial activity against ceftazidime-nonsusceptible Escherichia coli assessed as susceptible isolates by CLSI M7-A7 broth microdilution method
Streptococcus pyogenes = experiment: Antibacterial activity against erythromycin-susceptible Streptococcus pyogenes by CLSI M7-A7 broth microdilution method
Enterococcus faecalis [15] = experiment: Antibacterial activity against vancomycin-resistant Enterococcus faecalis by CLSI M7-A7 broth microdilution method
Streptococcus viridans [16] = experiment: Antibacterial activity against penicillin-susceptible Streptococcus viridans by CLSI M7-A7 broth microdilution method
Streptococcus pneumoniae [17] = experiment: Antibacterial activity against penicillin-susceptible Streptococcus pneumoniae assessed as susceptible isolates by CLSI M7-A7 broth microdilution method
Streptococcus pneumoniae [18] = experiment: Antibacterial activity against penicillin-resistant Streptococcus pneumoniae assessed as susceptible isolates by CLSI M7-A7 broth microdilution method
Enterobacter cloacae [19] = experiment: Antibacterial activity against ceftazidime-susceptible Enterobacter cloacae assessed as resistant isolates by CLSI M7-A7 broth microdilution method
Proteus mirabilis = experiment: Antibacterial activity against ceftazidime-susceptible Proteus mirabilis assessed as resistant isolates by CLSI M7-A7 broth microdilution method
Escherichia coli [20] = experiment: Antibacterial activity against ceftazidime-nonsusceptible Escherichia coli assessed as resistant isolates by CLSI M7-A7 broth microdilution method
Moraxella catarrhalis [21] = experiment: Antibacterial activity against beta lactamase-positive Moraxella catarrhalis assessed as susceptible isolates by CLSI M7-A7 broth microdilution method
Enterococcus faecium = experiment: Antibacterial activity against vancomycin-resistant Enterococcus faecium by CLSI M7-A7 broth microdilution method
Providencia sp. [22] = experiment: Antibacterial activity against ceftazidime-susceptible Providencia sp. assessed as resistant isolates by CLSI M7-A7 broth microdilution method
Enterobacter cloacae [23] = experiment: Antibacterial activity against ceftazidime-susceptible Enterobacter cloacae assessed as susceptible isolates by CLSI M7-A7 broth microdilution method
Klebsiella pneumoniae [24] = experiment: Antibacterial activity against ceftazidime-susceptible Klebsiella pneumoniae assessed as susceptible isolates by CLSI M7-A7 broth microdilution method
Serratia marcescens = experiment: Antibacterial activity against ceftazidime-susceptible Serratia marcescens assessed as resistant isolates by CLSI M7-A7 broth microdilution method
Streptococcus viridans [25] = experiment: Antibacterial activity against penicillin-nonsusceptible Streptococcus viridans by CLSI M7-A7 broth microdilution method
Klebsiella pneumoniae [26] = experiment: Antibacterial activity against ceftazidime-nonsusceptible Klebsiella pneumoniae by CLSI M7-A7 broth microdilution method
Staphylococcus aureus [27] = experiment: Antibacterial activity against methicillin-susceptible Staphylococcus aureus assessed as susceptible isolates by CLSI M7-A7 broth microdilution method
Enterobacteriaceae [28] = experiment: Antibacterial activity against ceftazidime-nonsusceptible Enterobacteriaceae assessed as resistant isolates by CLSI M7-A7 broth microdilution method
Escherichia coli [29] = experiment: Antibacterial activity against ceftazidime-susceptible Escherichia coli assessed as susceptible isolates by CLSI M7-A7 broth microdilution method
Moraxella catarrhalis [30] = experiment: Antibacterial activity against beta lactamase-positive Moraxella catarrhalis by CLSI M7-A7 broth microdilution method
Enterobacter cloacae [31] = experiment: Antibacterial activity against ceftazidime-nonsusceptible Enterobacter cloacae assessed as susceptible isolates by CLSI M7-A7 broth microdilution method
Klebsiella pneumoniae [32] = experiment: Antibacterial activity against ceftazidime-nonsusceptible Klebsiella pneumoniae assessed as resistant isolates by CLSI M7-A7 broth microdilution method
Staphylococcus aureus [33] = experiment: Antibacterial activity against coagulase-negative and oxacillin-resistant Staphylococcus aureus assessed as susceptible isolates by CLSI M7-A7 broth microdilution method
Streptococcus pneumoniae [34] = experiment: Antibacterial activity against penicillin-resistant Streptococcus pneumoniae assessed as resistant isolates by CLSI M7-A7 broth microdilution method
Klebsiella pneumoniae [35] = experiment: Antibacterial activity against ceftazidime-susceptible Klebsiella pneumoniae by CLSI M7-A7 broth microdilution method
Haemophilus influenzae = experiment: Antibacterial activity against beta lactamase-positive Haemophilus influenzae by CLSI M7-A7 broth microdilution method
Streptococcus pneumoniae [36] = experiment: Antibacterial activity against penicillin-susceptible Streptococcus pneumoniae by CLSI M7-A7 broth microdilution method
Acinetobacter [37] = experiment: Antibacterial activity against imipenem-susceptible Acinetobacter assessed as susceptible isolates by CLSI M7-A7 broth microdilution method
Escherichia coli [38] = experiment: Antibacterial activity against ceftazidime-susceptible Escherichia coli assessed as resistant isolates by CLSI M7-A7 broth microdilution method

Compound: CO/N=C(\C(=O)N[C@@H]1C(=O)N2C(C(=O)O)=C(CSc3nc(=O)c(O)nn3C)CS[C@H]12)c1csc(N)n1 [CEFTRIAXONE]
- MIC50 (Streptococcus agalactiae): 0.06 µg/mL (≈ 0.108 µM)
- MIC90 (Streptococcus agalactiae): 0.12 µg/mL (≈ 0.216 µM)
- MIC50 (Acinetobacter [1]): 16 µg/mL (≈ 28.9 µM)
- MIC90 (Acinetobacter [1]): > 16 µg/mL
- Activity (Citrobacter freundii [2]): 0%
- Activity (Morganella morganii [3]): 0%
- MIC50 (Enterobacteriaceae [4]): > 16 µg/mL
- MIC90 (Enterobacteriaceae [4]): > 16 µg/mL
- Activity (Acinetobacter [5]): 0%
- MIC (Providencia sp. [6]): ≤ 0.06 µg/mL
- MIC50 (Providencia sp. [6]): ≤ 0.06 µg/mL
- MIC90 (Providencia sp. [6]): 2 µg/mL (≈ 3.61 µM)
- Activity (Staphylococcus aureus [7]): 22.1%
- MIC50 (Enterococcus faecalis [8]): > 32 µg/mL
- MIC90 (Enterococcus faecalis [8]): > 32 µg/mL
- Activity (Morganella morganii [9]): 100%
- Activity (Enterobacter cloacae [10]): 0%
- Activity (Citrobacter freundii [11]): 100%
- MIC50 (Streptococcus pneumoniae [12]): 1 µg/mL (≈ 1.8 µM)
- MIC90 (Streptococcus pneumoniae [12]): 2 µg/mL (≈ 3.61 µM)
- Activity (Staphylococcus aureus [13]): 33.1%
- Activity (Escherichia coli [14]): 9.5%
- MIC (Streptococcus pyogenes): ≤ 0.015 µg/mL
- MIC50 (Streptococcus pyogenes): ≤ 0.015 µg/mL
- MIC90 (Streptococcus pyogenes): 0.03 µg/mL (≈ 0.0541 µM)
- MIC (Enterococcus faecalis [15]): > 1 µg/mL
- MIC50 (Streptococcus viridans [16]): 0.06 µg/mL (≈ 0.108 µM)
- MIC90 (Streptococcus viridans [16]): 0.25 µg/mL (≈ 0.451 µM)
- Activity (Streptococcus pneumoniae [17]): 100%
- Activity (Streptococcus pneumoniae [18]): 79.4%
- Activity (Enterobacter cloacae [19]): 0%
- Activity (Proteus mirabilis): 0%
- Activity (Escherichia coli [20]): 0%
- Activity (Moraxella catarrhalis [21]): 100%
- MIC (Enterococcus faecium): > 32 µg/mL
- MIC50 (Enterococcus faecium): > 32 µg/mL
- MIC90 (Enterococcus faecium): > 32 µg/mL
- Activity (Providencia sp. [22]): 0%
- Activity (Enterobacter cloacae [23]): 98%
- Activity (Klebsiella pneumoniae [24]): 99.5%
- Activity (Serratia marcescens): 0%
- MIC50 (Streptococcus viridans [25]): 2 µg/mL (≈ 3.61 µM)
- MIC90 (Streptococcus viridans [25]): 8 µg/mL (≈ 14.4 µM)
- MIC50 (Klebsiella pneumoniae [26]): > 16 µg/mL
- MIC90 (Klebsiella pneumoniae [26]): > 16 µg/mL
- Activity (Staphylococcus aureus [27]): 97.1%
- Activity (Enterobacteriaceae [28]): 0%
- Activity (Escherichia coli [29]): 97.4%
- MIC (Moraxella catarrhalis [30]): ≤ 0.25 µg/mL
- MIC50 (Moraxella catarrhalis [30]): ≤ 0.25 µg/mL
- MIC90 (Moraxella catarrhalis [30]): 1 µg/mL (≈ 1.8 µM)
- Activity (Enterobacter cloacae [31]): 8.6%
- Activity (Klebsiella pneumoniae [32]): 0%
- Activity (Staphylococcus aureus [33]): 27.1%
- Activity (Streptococcus pneumoniae [34]): 6.8%
- MIC (Klebsiella pneumoniae [35]): ≤ 0.06 µg/mL
- MIC50 (Klebsiella pneumoniae [35]): ≤ 0.06 µg/mL
- MIC90 (Klebsiella pneumoniae [35]): 0.12 µg/mL (≈ 0.216 µM)
- MIC (Haemophilus influenzae): ≤ 0.06 µg/mL
- MIC50 (Haemophilus influenzae): ≤ 0.06 µg/mL
- MIC90 (Haemophilus influenzae): ≤ 0.06 µg/mL
- MIC50 (Streptococcus pneumoniae [36]): 0.03 µg/mL (≈ 0.0541 µM)
- MIC90 (Streptococcus pneumoniae [36]): 0.06 µg/mL (≈ 0.108 µM)
- Activity (Acinetobacter [37]): 44.7%
- Activity (Escherichia coli [38]): 0%

Compound: C[C@@H](O)[C@H]1C(=O)N2C(C(=O)O)=C(SCCNC=N)C[C@H]12 [IMIPENEM ANHYDROUS]
- MIC (Streptococcus agalactiae): ≤ 0.015 µg/mL
- MIC50 (Streptococcus agalactiae): ≤ 0.015 µg/mL
- MIC90 (Streptococcus agalactiae): 0.03 µg/mL (≈ 0.1 µM)
- MIC50 (Acinetobacter [1]): 0.25 µg/mL (≈ 0.835 µM)
- MIC90 (Acinetobacter [1]): 0.5 µg/mL (≈ 1.67 µM)
- Activity (Citrobacter freundii [2]): 0%
- Activity (Morganella morganii [3]): 0%
- MIC50 (Enterobacteriaceae [4]): 0.25 µg/mL (≈ 0.835 µM)
- MIC90 (Enterobacteriaceae [4]): 4 µg/mL (≈ 13.4 µM)
- Activity (Acinetobacter [5]): 0%
- MIC50 (Providencia sp. [6]): 1 µg/mL (≈ 3.34 µM)
- MIC90 (Providencia sp. [6]): 2 µg/mL (≈ 6.68 µM)
- Activity (Staphylococcus aureus [7]): 16.4%
- MIC50 (Enterococcus faecalis [8]): 1 µg/mL (≈ 3.34 µM)
- MIC90 (Enterococcus faecalis [8]): 2 µg/mL (≈ 6.68 µM)
- Activity (Morganella morganii [9]): 100%
- Activity (Enterobacter cloacae [10]): 2.9%
- Activity (Citrobacter freundii [11]): 100%
- MIC50 (Streptococcus pneumoniae [12]): 0.25 µg/mL (≈ 0.835 µM)
- MIC90 (Streptococcus pneumoniae [12]): 1 µg/mL (≈ 3.34 µM)
- Activity (Staphylococcus aureus [13]): 13.5%
- Activity (Escherichia coli [14]): 96.8%
- MIC (Streptococcus pyogenes): ≤ 0.015 µg/mL
- MIC50 (Streptococcus pyogenes): ≤ 0.015 µg/mL
- MIC90 (Streptococcus pyogenes): ≤ 0.015 µg/mL
- MIC50 (Enterococcus faecalis [15]): 1 µg/mL (≈ 3.34 µM)
- MIC90 (Enterococcus faecalis [15]): 2 µg/mL (≈ 6.68 µM)
- MIC (Streptococcus viridans [16]): ≤ 0.015 µg/mL
- MIC50 (Streptococcus viridans [16]): ≤ 0.015 µg/mL
- MIC90 (Streptococcus viridans [16]): 0.06 µg/mL (≈ 0.2 µM)
- Activity (Streptococcus pneumoniae [17]): 96.5%
- Activity (Streptococcus pneumoniae [18]): 12.5%
- Activity (Enterobacter cloacae [19]): 0%
- Activity (Proteus mirabilis): 0%
- Activity (Escherichia coli [20]): 3.2%
- MIC (Enterococcus faecium): > 16 µg/mL
- MIC50 (Enterococcus faecium): > 16 µg/mL
- MIC90 (Enterococcus faecium): > 16 µg/mL
- Activity (Providencia sp. [22]): 0%
- Activity (Enterobacter cloacae [23]): 100%
- Activity (Klebsiella pneumoniae [24]): 100%
- Activity (Serratia marcescens): 0%
- MIC50 (Streptococcus viridans [25]): 0.06 µg/mL (≈ 0.2 µM)
- MIC90 (Streptococcus viridans [25]): 1 µg/mL (≈ 3.34 µM)
- MIC50 (Klebsiella pneumoniae [26]): 0.12 µg/mL (≈ 0.401 µM)
- MIC90 (Klebsiella pneumoniae [26]): 16 µg/mL (≈ 53.4 µM)
- Activity (Staphylococcus aureus [27]): 99.7%
- Activity (Enterobacteriaceae [28]): 4.5%
- Activity (Escherichia coli [29]): 100%
- MIC (Moraxella catarrhalis [30]): ≤ 0.12 µg/mL
- MIC50 (Moraxella catarrhalis [30]): ≤ 0.12 µg/mL
- MIC90 (Moraxella catarrhalis [30]): ≤ 0.12 µg/mL
- Activity (Enterobacter cloacae [31]): 97.1%
- Activity (Klebsiella pneumoniae [32]): 10.6%
- Activity (Staphylococcus aureus [33]): 77.3%
- Activity (Streptococcus pneumoniae [34]): 10.8%
- MIC (Klebsiella pneumoniae [35]): 0.12 µg/mL (≈ 0.401 µM)
- MIC50 (Klebsiella pneumoniae [35]): 0.12 µg/mL (≈ 0.401 µM)
- MIC90 (Klebsiella pneumoniae [35]): 0.5 µg/mL (≈ 1.67 µM)
- MIC50 (Haemophilus influenzae): 0.12 µg/mL (≈ 0.401 µM)
- MIC90 (Haemophilus influenzae): 0.5 µg/mL (≈ 1.67 µM)
- MIC (Streptococcus pneumoniae [36]): ≤ 0.015 µg/mL
- MIC50 (Streptococcus pneumoniae [36]): ≤ 0.015 µg/mL
- MIC90 (Streptococcus pneumoniae [36]): ≤ 0.015 µg/mL
- Activity (Acinetobacter [37]): 100%
- Activity (Escherichia coli [38]): 0%
